US6555356B2, “Methods for microbial regulation” (Unisearch Limited, priority 1995, dated 2003)
In brackets after ≈: the same amount, converted by molar mass. Entries after “also recorded” stand apart in the source; their conditions may differ.

Legend:
Type in all cases: cell-based
Serratia liquefaciens [1] = assay: Serratia liquefaciens swarming assay; details: 5-100 μg/ml in LB agar (0.7%) plates
Method: (§1) Serratia liquefaciens was grown in liquid LB medium at room temperature to an optical density of 0.3 at 450 nm and stable inoculated onto LB agar (0.7% agar) plates. Plates were incubated at 30° C. and observed regularly for swarming behaviour. The effect on swarming of furanone compounds was tested by adding (after sterilisation and cooling of the agar) compounds 1-13 (FIG. 3). in the concentration range of 5-100 μg/ml, to the plates.

Serratia liquefaciens [2] = assay: Serratia liquefaciens exoprotease assay (skim milk agar clearing zones); details: 100 μg/ml; for exoprotease activity of the wild type: Serratia liquefaciens wild type; for Effect on HSL phenotype: exoenzymes (exoprotease production): Serratia liquefaciens
Method: For assays of production of exoproteases by Serratia liquifaciens the bacteria were cultured as above and inoculated in liquid LB medium. The effects of furanone compounds were tested by adding compounds 3 and 4 (FIG. 3) at 100 μg/ml. Aliquots were withdrawn from the cultures, centrifuged and sterile filtered. Sixty microliters of supernatant were added to wells in skim milk agar plates (1.5% skim milk in M9 medium). Plates were incubated at room temperature and observed for clearing zones around the wells.

Serratia liquefaciens [3] = assay: Growth of Serratia liquefaciens in liquid LB medium; details: 100 μg/ml
Method: (§2) The effect on growth of Serratia liquefaciens by furanone compounds was also measured in liquid LB medium by comparing growth of cultures without the addition of compounds versus growth of cultures with added furanone compounds (100 μg/ml of compounds 1-13 (FIG. 3) in separate cultures). Growth was measured as optical density at 450 nm and followed over a 48 hr period.

Pseudomonas aeruginosa [4] = assay: Pseudomonas aeruginosa (elastase) assay; details: 100 μg/ml in elastin agar
Method: (§3) Inoculants from precultures were streaked onto Peptone-Tryptic Soy Broth agar containing 0.3% elastin. Plates were incubated at 37° C. and observed for hydrolysis of the elastin. The effect of furanone compounds was assess by adding compounds 1-4 (100 μg/ml) to the plates and comparing zones of hydrolysis in plates with and without the compounds.

Pseudomonas aeruginosa [5] = assay: Growth of Pseudomonas aeruginosa on plates; details: 100 μg/ml
Method: as §3

Erwinia carotovora [6] = assay: Erwinia carotovora (exoenzyme) assay on potato slices
Method: Inoculants from precultured E. carotovora were added to slices of potatoes. Degradation (softening and browning) of the potato was compared on slices with and without furanone compounds (3 and 4).

Erwinia carotovora [7] = assay: Growth of Erwinia carotovora
Vibrio fisheri [8] = assay: Vibrio fisheri bioluminescence assay; details: 100 μg/ml, visual inspection of agar plates
Method: (§4) Initial assays for both strains of Vibrio were streaked onto LB agar plates (with 2% NaCl) with and without furanone compounds 1-4 at 5-100 μg/ml. Bioluminescence of the plates was visually assessed after 24 hours of incubation at room temperature. In subsequent assays, both strains were grown in liquid culture in the presence of furanones. Bioluminescence was assayed via a luminometer. The effects of furanones on growth of both strains were assayed as above.

Vibrio harveyi [9] = assay: Vibrio harveyi bioluminescence assay; details: 100 μg/ml, visual inspection of agar plates
Method: as §4

Vibrio fisheri [10] = assay: Growth of Vibrio fisheri
Method: as §2, §4

Vibrio harveyi [11] = assay: Growth of Vibrio harveyi
Method: as §2, §4

strain R12 [12] = assay: Marine isolate swimming, strain R12
strain R12 [13] = assay: Marine isolate growth in liquid media, strain R12
Method: as §2
(§5) Methods followed those described for Serratia liquefaciens (above). Inhibition of growth of these bacteria by furanones was assessed as above.

strain R12 [14] = assay: Marine isolate swarming, strain R12
Method: as §1, §5

strain R86 [15] = assay: Marine isolate swimming, strain R86
strain R86 [16] = assay: Marine isolate growth in liquid media, strain R86
Method: as §2, §5

strain R86 [17] = assay: Marine isolate swarming, strain R86
Method: as §1, §5

strain R130 [18] = assay: Marine isolate swimming, strain R130
strain R130 [19] = assay: Marine isolate growth in liquid media, strain R130
Method: as §2, §5

strain R130 [20] = assay: Marine isolate swarming, strain R130
Method: as §1, §5

strain V21 [21] = assay: Marine isolate swimming, strain V21
strain V21 [22] = assay: Marine isolate growth in liquid media, strain V21
Method: as §2, §5

strain V21 [23] = assay: Marine isolate swarming, strain V21
Method: as §1, §5

strain V54 [24] = assay: Marine isolate swimming, strain V54
strain V54 [25] = assay: Marine isolate growth in liquid media, strain V54
Method: as §2, §5

strain V54 [26] = assay: Marine isolate swarming, strain V54
Method: as §1, §5

strain V55 [27] = assay: Marine isolate swimming, strain V55
strain V55 [28] = assay: Marine isolate growth in liquid media, strain V55
Method: as §2, §5

strain V55 [29] = assay: Marine isolate swarming, strain V55
Method: as §1, §5

Candida albicans = assay: Fungal growth inhibition zone assay, Candida albicans
Method: (§6) In addition to the tests described above, the effects of selected compounds of the general formula 2 on growth of bacteria, one yeast (Candida albicans) and one fungus (Helminthosporium sp.) were assessed. Bacteria were grown in liquid media in the presence of different concentrations of furanones and growth measured via changes in optical density (OD). Fungal assays were done by inoculating agar plates with spores. These plates contained different concentrations of furanone compounds in wells within the plates. Zones of inhibition around these wells were measured after 48 hours.

Helminthosporium sp. = assay: Fungal growth inhibition zone assay, Helminthosporium sp.
Method: as §6

[30] = tested on: Chromobacterium violencia; assay: Growth of Chromobacterium violencia; details: 100 μg/ml
Method: as §2
A mutant of Chromobacterium violencia negative for the HSL auto inducer was used in the assay. The strain was pour plated in LB medium at high density and wells were punched after the media had set. Sterile, filtered supernatants from various HSL producing strains were added to the wells. Plates were incubated at 30° C. and observed for the formation of purple zones (due to […]) around the wells. The effects of furanone compounds 1 and 2 (FIG. 3) were assessed by running this assay on plates of LB medium containing furanone compounds at a concentration of 100 μg/ml. The effects of the compounds on growth of Chromobacterium were assessed as above.

Proteus mirabilis [31] = assay: Proteus mirabilis swarming assay; details: LB10 with 1.5% agar
Proteus mirabilis [32] = assay: Proteus mirabilis swimming; details: concentrations inhibitory to swarming, LB10 with 0.3% agar
Proteus mirabilis [33] = assay: Proteus mirabilis growth; details: concentrations inhibitory to swarming, 37 C
Method: as §5

| Structure (SMILES) | Effect on HSL phenotype: swarming (Serratia liquefaciens [1]) | exoprotease activity of the wild type (Serratia liquefaciens [2]) | Effect on HSL phenotype: exoenzymes (exoprotease production) (Serratia liquefaciens [2]) | Effect on bacterial growth (Serratia liquefaciens [3]) | Effect on HSL phenotype: elastase (Pseudomonas aeruginosa [4]) | Effect on bacterial growth (Pseudomonas aeruginosa [5]) | Effect on HSL phenotype: exoenzymes (Erwinia carotovora [6]) | Effect on bacterial growth (Erwinia carotovora [7]) | Effect on bacterial growth (Vibrio fisheri [10]) | Effect on bacterial growth (Vibrio harveyi [11]) | Minimum inhibitory concentration, Swimming (strain R12 [12]) [µg/mL] | Minimum inhibitory concentration, Growth (strain R12 [13]) [µg/mL] | Minimum inhibitory concentration, Swarming (strain R12 [14]) [µg/mL] | Minimum inhibitory concentration, Swimming (strain R86 [15]) [µg/mL] | Minimum inhibitory concentration, Growth (strain R86 [16]) [µg/mL] | Minimum inhibitory concentration, Swarming (strain R86 [17]) [µg/mL] | Minimum inhibitory concentration, Swimming (strain R130 [18]) [µg/mL] | Minimum inhibitory concentration, Growth (strain R130 [19]) [µg/mL] | Minimum inhibitory concentration, Swarming (strain R130 [20]) [µg/mL] | Minimum inhibitory concentration, Swimming (strain V21 [21]) [µg/mL] | also measured |
| --- | --- | --- | --- | --- | --- | --- | --- | --- | --- | --- | --- | --- | --- | --- | --- | --- | --- | --- | --- | --- | --- |
| CCCC(OC(C)=O)C1=C(Br)C(=CBr)OC1=O (stereo not shown) [Compound 3] | inhibit | 3 and 4 decreases | inhibit; also recorded: decrease/ | no effect | inhibited; also recorded: delay/ | no effect | no effect | no effect | no effect | no effect | 50 (≈ 136 µM) | >50 | 5 (≈ 13.6 µM) | >50 | >50 | 5 (≈ 13.6 µM) | >50 | 25 (≈ 67.9 µM) | 25 (≈ 67.9 µM) | 25 (≈ 67.9 µM) | Effect on HSL phenotype: luminescence (Vibrio fisheri [8]): inhibit; Effect on HSL phenotype: luminescence (Vibrio harveyi [9]): inhibit; Minimum inhibitory concentration, Growth (strain V21 [22]): 5 µg/mL (≈ 13.6 µM); Minimum inhibitory concentration, Swarming (strain V21 [23]): 5 µg/mL (≈ 13.6 µM); Minimum inhibitory concentration, Swimming (strain V54 [24]): 5 µg/mL (≈ 13.6 µM); Minimum inhibitory concentration, Growth (strain V54 [25]): 25 µg/mL (≈ 67.9 µM); Minimum inhibitory concentration, Swarming (strain V54 [26]): 5 µg/mL (≈ 13.6 µM); Minimum inhibitory concentration, Swimming (strain V55 [27]): 5 µg/mL (≈ 13.6 µM); Minimum inhibitory concentration, Growth (strain V55 [28]): 5 µg/mL (≈ 13.6 µM); Minimum inhibitory concentration, Swarming (strain V55 [29]): 5 µg/mL (≈ 13.6 µM); width of inhibition zone (Candida albicans; amount added 0.1 μg): 0 mm; width of inhibition zone (Candida albicans; amount added 1 μg): 0 mm; width of inhibition zone (Candida albicans; amount added 10 μg): 1-2 mm; width of inhibition zone (Candida albicans; amount added 100 μg): 2-3 mm; width of inhibition zone (Helminthosporium sp.; amount added 0.1 μg): 0 mm; width of inhibition zone (Helminthosporium sp.; amount added 1 μg): 0 mm; width of inhibition zone (Helminthosporium sp.; amount added 10 μg): 6-9 mm; width of inhibition zone (Helminthosporium sp.; amount added 100 μg): 6-20 mm |
| CCCC(O)C1=C(Br)C(=CBr)OC1=O (stereo not shown) [Compound 4] | inhibit | 3 and 4 decreases | inhibit; also recorded: decrease/ | no effect | inhibited; also recorded: delay/ | no detectable effect | decreases; also recorded: inhibit | without inhibiting; also recorded: no effect | no effect | no effect | 25 (≈ 76.7 µM) | 25 (≈ 76.7 µM) | 5 (≈ 15.3 µM) | 25 (≈ 76.7 µM) | 25 (≈ 76.7 µM) | 5 (≈ 15.3 µM) | 25 (≈ 76.7 µM) | 25 (≈ 76.7 µM) | 5 (≈ 15.3 µM) | 5 (≈ 15.3 µM) | Effect on bacterial growth [30]: inhibit; Effect on swarming (Proteus mirabilis [31]): inhibited; Effect on swimming (Proteus mirabilis [32]): did not affect; Effect on growth (Proteus mirabilis [33]): did not affect; Minimum inhibitory concentration, Growth (strain V21 [22]): 5 µg/mL (≈ 15.3 µM); Minimum inhibitory concentration, Swarming (strain V21 [23]): 5 µg/mL (≈ 15.3 µM); Minimum inhibitory concentration, Swimming (strain V54 [24]): 5 µg/mL (≈ 15.3 µM); Minimum inhibitory concentration, Growth (strain V54 [25]): 25 µg/mL (≈ 76.7 µM); Minimum inhibitory concentration, Swarming (strain V54 [26]): 5 µg/mL (≈ 15.3 µM); Minimum inhibitory concentration, Swimming (strain V55 [27]): 5 µg/mL (≈ 15.3 µM); Minimum inhibitory concentration, Growth (strain V55 [28]): 25 µg/mL (≈ 76.7 µM); Minimum inhibitory concentration, Swarming (strain V55 [29]): 5 µg/mL (≈ 15.3 µM) |
